One may read the IC50 as the concentration at which inhibition is half-maximal. A lower IC50 goes with greater potency. As usually defined, the Vmax is the rate approached at saturating substrate.

We go through one molecule from ChEMBL document CHEMBL3526034 (Drug Metab Dispos, 2013).

A value given as a limit tells only on which side of the number the result lay.

The target of data set [1] is Solute carrier family 22 member 1 (Homo sapiens, UniProt O15245). Description: Inhibition of human OCT1 expressed in HEK293 cells using [14C]metformin as substrate at 10 uM after 10 mins by liquid scintillation counting analysis. Format: ADME, cell-based. The conditions noted are these: hek293, 10 min.
Sequence of Solute carrier family 22 member 1 (O15245 whole entry): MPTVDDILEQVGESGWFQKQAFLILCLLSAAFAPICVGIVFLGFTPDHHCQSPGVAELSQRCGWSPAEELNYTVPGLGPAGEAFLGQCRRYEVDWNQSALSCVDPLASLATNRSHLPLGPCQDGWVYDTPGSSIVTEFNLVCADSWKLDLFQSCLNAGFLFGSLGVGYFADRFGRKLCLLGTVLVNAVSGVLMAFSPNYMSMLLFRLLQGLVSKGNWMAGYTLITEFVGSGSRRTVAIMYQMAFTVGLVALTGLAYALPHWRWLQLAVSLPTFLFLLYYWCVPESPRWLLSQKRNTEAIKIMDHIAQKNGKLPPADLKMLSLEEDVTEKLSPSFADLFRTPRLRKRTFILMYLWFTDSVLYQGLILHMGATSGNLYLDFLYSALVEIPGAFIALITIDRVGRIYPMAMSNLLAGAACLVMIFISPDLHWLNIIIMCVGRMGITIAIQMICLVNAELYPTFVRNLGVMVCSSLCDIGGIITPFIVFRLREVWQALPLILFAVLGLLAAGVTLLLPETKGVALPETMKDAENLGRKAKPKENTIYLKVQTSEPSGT
In data set [2] the target is Solute carrier family 22 member 2 (Homo sapiens, UniProt O15244). Description: Inhibition of human OCT2 expressed in MDCK2 cells using [14C]metformin as substrate by liquid scintillation counting analysis. The class given is ADME, cell-based, MDCK-II.
Sequence of Solute carrier family 22 member 2 (O15244 whole entry): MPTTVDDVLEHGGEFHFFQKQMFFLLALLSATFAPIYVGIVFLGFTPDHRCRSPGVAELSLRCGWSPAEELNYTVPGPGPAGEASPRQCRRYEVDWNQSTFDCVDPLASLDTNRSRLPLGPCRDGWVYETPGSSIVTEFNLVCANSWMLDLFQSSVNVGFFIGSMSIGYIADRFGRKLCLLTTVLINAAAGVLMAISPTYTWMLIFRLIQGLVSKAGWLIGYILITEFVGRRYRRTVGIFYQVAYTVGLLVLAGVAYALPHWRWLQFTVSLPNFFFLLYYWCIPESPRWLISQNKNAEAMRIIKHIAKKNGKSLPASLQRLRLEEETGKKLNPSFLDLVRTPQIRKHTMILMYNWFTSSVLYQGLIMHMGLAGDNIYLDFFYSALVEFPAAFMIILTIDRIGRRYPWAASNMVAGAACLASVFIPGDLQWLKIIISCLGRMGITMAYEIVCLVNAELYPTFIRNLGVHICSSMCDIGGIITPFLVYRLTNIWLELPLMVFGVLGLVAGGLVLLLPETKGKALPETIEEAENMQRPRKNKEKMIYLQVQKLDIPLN
Data set [3] in a line: In vitro passive membrane permeability across dog MDCK2 cells at 3 uM using fasted state-simulated intestinal fluid buffer at pH 7.4 on donor side and 1% human serum albumin at pH 7.4 on receiver side by liquid scintillation counting analysis. The class given is ADME, cell-based, Canis lupus familiaris, MDCK-II. The conditions noted are these: MDCK, read-out: permeability.

Data set [4] addresses T1, UDP-glucuronosyltransferase 1A1 (Homo sapiens, UniProt P22309).
T1 sequence (P22309 whole entry): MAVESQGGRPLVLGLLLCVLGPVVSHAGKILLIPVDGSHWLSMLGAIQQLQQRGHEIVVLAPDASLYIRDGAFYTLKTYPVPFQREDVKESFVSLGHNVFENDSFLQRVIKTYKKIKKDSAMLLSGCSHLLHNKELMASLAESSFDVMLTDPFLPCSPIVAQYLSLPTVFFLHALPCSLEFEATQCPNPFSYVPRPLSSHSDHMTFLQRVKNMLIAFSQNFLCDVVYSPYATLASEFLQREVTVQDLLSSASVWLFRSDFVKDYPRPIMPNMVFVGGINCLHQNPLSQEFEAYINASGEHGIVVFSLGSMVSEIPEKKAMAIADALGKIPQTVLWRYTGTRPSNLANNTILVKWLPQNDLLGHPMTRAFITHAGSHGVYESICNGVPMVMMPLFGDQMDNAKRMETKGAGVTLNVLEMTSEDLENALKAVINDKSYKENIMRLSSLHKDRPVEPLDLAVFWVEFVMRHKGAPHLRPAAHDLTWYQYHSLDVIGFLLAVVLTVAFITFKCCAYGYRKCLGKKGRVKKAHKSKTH
In words: Drug metabolism assessed as human recombinant UGT1A1-mediated DTG glucuronide M2 ((2S,3S,4S,5R,6S)-6-((4R,12aS)-9-(2,4-difluorobenzylcarbamoyl)-4-methyl-6,8-dioxo-3,4,6,8,12,12a-hexahydro-2H-[1,3]oxazino[3,2-d]pyrido[1,2-a]pyrazin-7-yloxy)-3,4,5-trihydroxytetrahydro-2H-pyran-2-carboxylic acid) formation after 120 mins measured per mg of protein by radio-HPLC analysis. Format: ADME. The conditions noted are these: recombinant enzyme.

The test system of another data set is Liver microsome. In words: Drug metabolism in NADPH-fortified human liver microsomes assessed as metabolite M3 ((4R,12aS)-N-((3,5-difluorophenyl)(hydroxy)methyl)-7-hydroxy-4-methyl-6,8-dioxo-3,4,6,8,12,12a-hexahydro-2H-[1,3]oxazino[3,2-d]pyrido[1,2-a]pyrazine-9-carboxamide) formation at 5 uM after 120 mins treated 5 mins after selective CYP3A4 inhibitor azamulin addition by radio-HPLC analysis. Format: ADME. For orientation: Microsomes from liver hold many membrane-bound enzymes, among them those of drug oxidation.

Another data set addresses Cytochrome P450 3A4 (Homo sapiens, UniProt P08684). Description: Drug metabolism in supersomes expressing human recombinant CYP3A4 assessed as for NADPH-fortified enzyme-mediated metabolite M1 ((4R,12aS)-7-hydroxy-4-methyl-6,8-dioxo-3,4,6,8,12,12a-hexahydro-2H-[1,3]oxazino[3,2-d]pyrido[1,2-a]pyrazine-9-carboxamide) formation at 5 uM after 120 mins by radio-HPLC analysis. The class given is ADME.

The target of a further data set is T2, Cytochrome P450 2C8 (Homo sapiens, UniProt P10632).
T2 sequence (P10632 whole entry): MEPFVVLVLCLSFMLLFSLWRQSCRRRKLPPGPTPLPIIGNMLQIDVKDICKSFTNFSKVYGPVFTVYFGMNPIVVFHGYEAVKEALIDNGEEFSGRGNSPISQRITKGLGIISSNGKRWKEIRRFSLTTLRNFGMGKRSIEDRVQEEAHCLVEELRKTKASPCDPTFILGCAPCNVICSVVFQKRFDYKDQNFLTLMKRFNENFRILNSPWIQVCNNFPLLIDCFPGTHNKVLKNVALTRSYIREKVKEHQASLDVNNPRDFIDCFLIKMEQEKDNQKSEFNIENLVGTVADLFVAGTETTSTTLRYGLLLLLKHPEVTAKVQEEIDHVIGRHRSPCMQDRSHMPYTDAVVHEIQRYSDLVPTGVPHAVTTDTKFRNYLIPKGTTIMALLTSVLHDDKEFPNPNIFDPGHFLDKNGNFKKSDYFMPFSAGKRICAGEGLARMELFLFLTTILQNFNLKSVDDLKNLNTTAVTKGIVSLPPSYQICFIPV
Description: Drug metabolism in supersomes expressing human recombinant CYP2C8 assessed as NADPH-fortified enzyme-mediated metabolite formation at 5 uM after 120 mins by radio HPLC analysis. Format: ADME. Conditions: 2 h.

A further data set deals with T3, Cytochrome P450 1A2 (Homo sapiens, UniProt P05177).
T3 sequence (P05177 whole entry): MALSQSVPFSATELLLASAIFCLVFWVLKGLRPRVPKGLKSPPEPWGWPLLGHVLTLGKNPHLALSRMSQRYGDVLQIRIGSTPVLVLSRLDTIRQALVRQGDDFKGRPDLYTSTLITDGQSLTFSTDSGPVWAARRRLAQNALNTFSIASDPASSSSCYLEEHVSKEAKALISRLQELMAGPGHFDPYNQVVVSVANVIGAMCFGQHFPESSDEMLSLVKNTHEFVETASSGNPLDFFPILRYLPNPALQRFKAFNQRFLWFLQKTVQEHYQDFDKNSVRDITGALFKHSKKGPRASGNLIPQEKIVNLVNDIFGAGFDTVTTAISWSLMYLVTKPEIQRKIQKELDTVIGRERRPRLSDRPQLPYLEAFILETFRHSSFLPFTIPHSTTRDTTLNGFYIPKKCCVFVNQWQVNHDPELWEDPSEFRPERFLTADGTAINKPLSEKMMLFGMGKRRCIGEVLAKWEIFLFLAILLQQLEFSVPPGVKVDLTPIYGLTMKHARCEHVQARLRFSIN
Description: Inhibition of CYP1A2 in human liver microsomes using phenacetin as substrate preincubated for 20 mins with substrate prior to initiation of reaction with NADPH by HPLC analysis. The class given is ADME.

For data set [5], the target named is T1, UDP-glucuronosyltransferase 1A1. Description: Drug metabolism assessed as UDPGA-fortified human recombinant UGT1A1-mediated DTG glucuronide metabolite ((2S,3S,4S,5R,6S)-6-((4R,12aS)-9-(2,4-difluorobenzylcarbamoyl)-4-methyl-6,8-dioxo-3,4,6,8,12,12a-hexahydro-2H-[1,3]oxazino[3,2-d]pyrido[1,2-a]pyrazin-7-yloxy)-3,4,5-trihydroxytetrahydro-2H-pyran-2-carboxylic acid) formation at 16 uM after 120 mins by radio-HPLC analysis. Format: ADME. Conditions: recombinant enzyme.

Data set [6] addresses UDP-glucuronosyltransferase 1A9 (Homo sapiens, UniProt O60656). In words: Drug metabolism assessed as UDPGA-fortified human recombinant UGT1A9-mediated DTG glucuronide metabolite ((2S,3S,4S,5R,6S)-6-((4R,12aS)-9-(2,4-difluorobenzylcarbamoyl)-4-methyl-6,8-dioxo-3,4,6,8,12,12a-hexahydro-2H-[1,3]oxazino[3,2-d]pyrido[1,2-a]pyrazin-7-yloxy)-3,4,5-trihydroxytetrahydro-2H-pyran-2-carboxylic acid) formation at 16 uM after 120 mins by radio-HPLC analysis. Format: ADME. Conditions: recombinant enzyme.

Sequence of UDP-glucuronosyltransferase 1A9 (O60656 whole entry): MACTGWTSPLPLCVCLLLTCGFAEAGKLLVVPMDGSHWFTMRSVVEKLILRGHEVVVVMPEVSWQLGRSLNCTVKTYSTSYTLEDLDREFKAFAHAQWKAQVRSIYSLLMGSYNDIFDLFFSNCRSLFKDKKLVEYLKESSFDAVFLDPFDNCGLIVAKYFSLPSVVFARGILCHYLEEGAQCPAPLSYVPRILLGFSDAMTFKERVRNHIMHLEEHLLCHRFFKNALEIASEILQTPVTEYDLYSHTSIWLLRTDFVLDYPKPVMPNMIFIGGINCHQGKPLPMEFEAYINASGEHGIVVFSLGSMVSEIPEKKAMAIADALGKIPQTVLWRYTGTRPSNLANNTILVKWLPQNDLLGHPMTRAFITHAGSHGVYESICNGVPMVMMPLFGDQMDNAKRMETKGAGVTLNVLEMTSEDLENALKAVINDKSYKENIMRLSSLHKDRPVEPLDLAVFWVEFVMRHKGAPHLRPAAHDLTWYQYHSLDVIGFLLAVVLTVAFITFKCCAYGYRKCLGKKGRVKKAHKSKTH
Sequence of Cytochrome P450 3A4 (P08684 whole entry): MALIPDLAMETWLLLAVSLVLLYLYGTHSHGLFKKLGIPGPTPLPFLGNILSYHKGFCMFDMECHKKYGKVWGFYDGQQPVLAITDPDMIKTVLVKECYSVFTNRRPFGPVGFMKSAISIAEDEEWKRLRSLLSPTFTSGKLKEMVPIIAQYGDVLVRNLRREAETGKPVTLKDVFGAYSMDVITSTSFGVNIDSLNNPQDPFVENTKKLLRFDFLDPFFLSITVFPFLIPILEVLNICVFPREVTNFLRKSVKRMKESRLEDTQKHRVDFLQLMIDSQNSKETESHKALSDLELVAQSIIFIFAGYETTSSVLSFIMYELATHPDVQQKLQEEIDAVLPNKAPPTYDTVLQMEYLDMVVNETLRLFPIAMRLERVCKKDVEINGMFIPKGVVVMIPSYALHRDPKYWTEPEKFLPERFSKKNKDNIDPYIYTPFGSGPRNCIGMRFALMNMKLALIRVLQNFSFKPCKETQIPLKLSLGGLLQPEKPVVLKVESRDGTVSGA

Consider `C[C@@H]1CCO[C@H]2Cn3cc(C(=O)NCc4ccc(F)cc4F)c(=O)c(O)c3C(=O)N12` [DOLUTEGRAVIR], for which the “inhibition (INH)” value in data set [1] is reported as 22%. Also, the values for the concentration for half-maximal inhibition (IC50) (in data set [2]; on Cytochrome P450 1A2) were 1900 nM and above 100000 nM, respectively. Besides, in [3], the Papp at 3 µM was 25.2 ×10⁻⁶ cm/s. In addition, the maximal velocity (Vmax) in [4] was 67 pmol/min. Besides, the Drug metabolism result is on record as “metabolite_not_detected” in the data set with Liver microsome; “metabolite_detected” at Cytochrome P450 3A4; “metabolite_not_detected” at Cytochrome P450 2C8; “metabolite_detected” in data set [5]; “metabolite_detected” in data set [6].
